Measurements as given in patent EP0306251A2, “Azolidinedione derivatives” (PFIZER INC., priority 1987, dated 1989).

How the values were obtained:
[1] = biological target: T1, partially purified aldose reductase enzyme obtained from human placenta (Homo sapiens, UniProt P15121); assay: inhibition of aldose reductase enzyme activity (procedure of Hayman et al., modified by Sestanj et al.); format: biochemical; conditions: 10^-5M
T1 construct: partially purified aldose reductase enzyme obtained from human placenta; from tissue; host or cells: human placenta
Protocol: The following spiro-3-heteroazolone compounds of Examples 4A, 4B, 6-9, 10A, 10B and 14, respectively, were tested for their ability to reduce or inhibit aldose reductase enzyme activity via the procedure of S. Hayman et al., as described in the Journal of Biological Chemistry, Vol. 240, p. 877 (1965) and as modified by K. Sestanj et al. in U.S. Patent No. 3,821,383. In every case, the substrate .employed was partially purified aldose reductase enzyme obtained from human placenta.

[2] = test system: sorbitol accumulation in the sciatic nerve and lens of streptozotocinized (i.e., diabetic) rats; assay: inhibition of sorbitol accumulation in sciatic nerve and lens of streptozotocinized rats; format: in vivo; conditions: for Percent Inhibition (%) Lens / Percent Inhibition (%) Sciatic Nerve: sorbitol measured at 27 hours
Protocol: The following spiro-3-heteroazolone compounds of Examples 4A, 4B, 6 and 10A, respectively, were tested for their ability to reduce or inhibit sorbitol accumulation in the sciatic nerve and lens of streptozotocinized (i.e., diabetic) rats by the procedure essentially described in U.S. Patent No. 3,821,383. In the present study, the amount of sorbitol accumulation in the sciatic nerve and lens of each test animal was measured 27 hours after induction of diabetes. The compounds were then administered orally at the dose levels indicated at 4, 8 and 24 hours following the administration of streptozotocin. The results obtained in this manner are presented below in terms of percent inhibition (%) afforded by the test compound as compared to the case where no compound was administered (i.e., the untreated animal where sorbitol levels normally rise from approximately 50-100 mM/g. tissue to as high as 400 mM/g. tissue in the 27-hour test period): […]

[3] = 1.0 mg./kg. orally at 4, 8 and 24 hours after streptozotocin
[4] = 0.1 mg./kg. orally at 4, 8 and 24 hours after streptozotocin
[5] = 0.25 mg./kg. orally at 4, 8 and 24 hours after streptozotocin
[6] = 5.0 mg./kg. orally at 4, 8 and 24 hours after streptozotocin

C[C@@H]1C[C@]2(NC(=O)NC2=O)c2cc(Br)cnc2O1 (racemic) [Product of Example 6, (±)-cis-6'-bromo-2',3'-dihydro-2'-methyl-spiro-[imidazolidine-4,4'-4'H-pyrano[2,3-b]pyridine]-2,5-dione]
inhibition at 10 µM [1]: 80%
Percent Inhibition (%) Lens [2, 3]: 67%
Percent Inhibition (%) Sciatic Nerve [2, 3]: 73%

C[C@@H]1C[C@]2(NC(=O)NC2=O)c2cc(F)cnc2O1 (racemic) [Product of Example 9, (±)-cis-6'-fluoro-2',3'-dihydro-2'-methyl-spiro-[imidazolidine-4,4'-4H-pyrano-[2,3-b]pyridine]-2,5-dione]
inhibition at 10 µM [1]: 77%

C[C@H]1C[C@@]2(NC(=O)NC2=O)c2cc(Cl)cnc2O1 [Product of Example 10B, (2'S)(4'R)-6'-chloro-2',3^1-dihydro-2'-methyl-spiro-[imidazolidine-4,4'-4'H-pyrano[2,3-b]pyridine]-2,5-dione]
inhibition at 10 µM [1]: 100%

C[C@@H]1C[C@]2(NC(=O)NC2=O)c2cc(Cl)cnc2O1 [Product of Example 10A, (4'S)(2'R)-6'-chloro-2',3'-dihydro-2'-methyl-spiro-[imidazolidine-4,4'-4'H-pyrano[2,3-b]pyridine]-2,5-dione]
inhibition at 10 µM [1]: 100%
Percent Inhibition (%) Lens [2, 4]: 33%
Percent Inhibition (%) Lens [2, 3]: 73%
inhibit the formation of sorbitol levels in both the sciatic nerve and lens of diabetic rats ([2]; oral route, dose levels ranging from 0.1-10.0 mg./kg., sciatic nerve and lens): significantly high degree
Percent Inhibition (%) Sciatic Nerve [2, 4]: 43%
Percent Inhibition (%) Sciatic Nerve [2, 3]: 78%

C[C@@H]1C[C@]2(NC(=O)NC2=O)c2cc(Cl)c[n+]([O-])c2O1 [Product of Example 14, (4'S)(2'R)-6'-chloro-2',3'-dihydro-2'-methyl-spiro-[imidazolidine-4,4'-4'H-pyrano[2,3-b]pyridine]-2,5-dione-8'-oxide]
inhibition at 10 µM [1]: 79%

C[C@@H]1C[C@]2(NC(=O)NC2=O)c2cccnc2O1 (racemic) [Product of Example 8, (±)-cis-2',3'-dihydro-2'methyl-spiro-[imidazolidine-4, 4'-4'H-pyrano[2,3-b]pyridine]-2,5-dione]
inhibition at 10 µM [1]: 57%

C[C@@H]1C[C@]2(NC(=O)NC2=O)c2cc(Cl)cnc2O1 (racemic) [Product of Example 4A, (±)-cis-8'-chloro-2',3'-dihydro-2'-methyl-spiro-[imidazolidine-4,4'-4'H-pyrano[2,3-b]pyridine]-2,5-dione]
inhibition at 10 µM [1]: 83%
Percent Inhibition (%) Lens [2, 5]: 22%
Percent Inhibition (%) Lens [2, 6]: 89%
Percent Inhibition (%) Sciatic Nerve [2, 5]: 34%
Percent Inhibition (%) Sciatic Nerve [2, 6]: 98%

O=C1NC(=O)C2(CCOc3ncc(Cl)cc32)N1 (racemic) [Product of Example 7, (±)-6-chloro-2',3'-dihydro-spiro-[imidazolidine-4,4'-4'H-pyrano[2,3-b]pyridine]-2,5-dione]
inhibition at 10 µM [1]: 60%

CC1CC2(NC(=O)NC2=O)c2cc(Cl)cnc2O1 (racemic) [Product of Example 4B, (±)-trans-6'-chloro-2',3'-dihydro-2'-methyl-spiro-[imidazolidine-4,4'-4'H-pyrano[2,3-b]pyridine]-2,5-dione]
inhibition at 10 µM [1]: 77%
Percent Inhibition (%) Lens [2, 5]: 32%
Percent Inhibition (%) Sciatic Nerve [2, 5]: 13%
